Patent publication US8569511B2, “Substituted 3-(1H-benzo[d]imidazol-2-yl)-1H-indazole analogs as inhibitors of the PDK1 kinase” (University of Utah Research Foundation, priority 2011, dated 2013)

Tests used:
PDK1 [1] = molecular target: T1, PDK1 (Homo sapiens (Human), UniProt O15530); assay: PDK1 ATP Depletion Kinase Assay (Kinase-Glo luminescence); format: biochemical; settings: PDKtide substrate, read-out: PDK1 Kinase assays (IC50, μM) Activity Assay
Protocol: Test compounds were diluted to desired concentrations in kinase reaction buffer and briefly incubated with human recombinant PDK1 kinase which is histidine-tagged (Invitrogen Corporation, Carlsbad, Calif.). The reaction was subsequently initiated by the addition of ATP and PDKtide substrate (Millipore Corporation, Billerica, Massachussetts). […] After an incubation of 60 minutes at room temperature, 10 μl of the Kinase-Glo reagent (Promega Corporation, Madison, Wis.) was added to each well and incubated for an additional 10 minutes. Luminescence was measured on an EnVision microplate reader (PerkinElmer). The amount of luminescence from each reaction is inversely correlated with PDK1 kinase activity. Percent inhibition and IC50 values can be calculated by comparing enzyme activity in drug-treated wells to the appropriate controls, e.g. vehicle control.
(§1) IC50 values are determined using GraphPad Prism 5 software. The data were entered as an X-Y plot into the software as percent inhibition for each concentration of the drug. The concentration values of the drug were log transformed and the nonlinear regression was carried out using the “sigmoidal dose-response (variable slope)” option within the GraphPad software to model the data and calculate IC50 values.

PDK1 [2] = molecular target: T1, PDK1; assay: PDK1 fluorometric activity assay performed by Life Technologies; format: biochemical; settings: fluorometric assay performed by Life Technologies (Table IV); read-out: PDK1 Kinase assays (IC50)
Protocol: PDK1 biochemical activity was measured by a fluorometric assay performed by Life Technologies (Grand Island, N.Y.). The assay conditions for PDK1 are as follows. The 2×PDK1/Ser/Thr-07 mixture is prepared in 50 mM Tris pH 8.5, 0.01% BRIJ-35, 10 mM MgCl2, 1 mM EGTA, 0.02% NaN3.
The kinase specificity was measured using fluorometric assays performed by Life Technologies (Grand Island, N.Y.). Assay conditions vary for each kinase and are available from Life Technologies, Grand Island, NY. For example, the assay conditions for PDK1 are as follows. The 2×PDK1/Ser/Thr-07 mixture is prepared in 50 mM Tris pH 8.5, 0.01% BRIJ-35, 10 mM MgCl2, 1 mM EGTA, 0.02% NaN3.

PDK1 [3] = molecular target: T1, PDK1; assay: Time resolved-FRET LanthaScreen Kinase Binding Assay; settings: TR-FRET Lanthascreen Kinase Binding Assay; read-out: PDK1 Kinase assays (IC50, μM) Binding Assay
Text: Binding of the tracer to the kinase is detected using a europium-labeled anti-tag antibody, which binds to the kinase of interest. […] Binding of an inhibitor to the kinase competes for binding with the tracer, resulting in a loss of FRET.
Activity of compounds was routinely assessed using a secondary assay as described herein. The secondary assay was a time resolved-FRET LanthaScreen Kinase Binding Assay (Invitrogen Corporation, Carlsbad, Calif.). This assay evaluates the ability of the test compound to compete with a fluorescently-labeled tracer molecule to bind in the ATP pocket of a kinase. The assay signal is generated when a Europium-conjugated anti-His tag antibody (Invitrogen) bound to the His-tagged kinase produces a TR-FRET signal with the tracer molecule bound in the ATP pocket of the kinase. […] After 60 minutes of incubation at room temperature, the TR-FRET signal was measured on an EnVision microplate reader.
as §1

HEC-1A cells = assay: Cell viability assay (ATP-lite); format: cell-based; settings: Homo sapiens; HEC-1A (PTEN-wild type); read-out: Cell Viability IC50 HEC-1A
Protocol: (§2) AN3-CA (PTEN-deficient), RL95-2 (PTEN-deficient), and HEC-1A (PTEN-wild type) cells were plated in 45 μl of RPMI-1640 media supplemented with 10% FBS and 1% Pen/Strep at a density of 1000 cells per well in white 384-well plates. Cells were allowed to attach by incubation overnight at 37° C. and 5% CO2. Test compounds were diluted to 10× concentrations in RPMI-1640 media (containing 3% DMSO) and 5 μl 1 of these dilutions were added in triplicate to the appropriate wells containing the cells. The plates containing the drug-treated cells and appropriate controls were incubated for 96 hours. At the end of the incubation, 40 μl of ATP-lite (PerkinElmer, Inc., Waltham, Massachussetts) reagent were added to each well and luminescence signal was measured on an EnVision microplate reader.
(§3) Alternatively, AN3-CA, RL95-2, HEC-1A endometrial cancer cell lines were plated at a density of 2000 cells per well in a 96 well culture plate in 45 μl of cell culture media and incubated overnight. […] Vehicle treated controls were also included and each condition was applied in quadruplicate. Following 96 hours of incubation, 35 μL of ATP-lite (PerkinElmer) reagent was added each well and allowed to react for 10 minutes. Plate was read on a Envision 2104 MultiLabel reader (PerkinElmer).
as §1

RL95-2 cells = assay: Cell viability assay (ATP-lite); format: cell-based; settings: Homo sapiens; RL95-2 (PTEN mutation); read-out: Cell Viability IC50 RL95-2
Protocol: as §2, §3, §1

AN3-CA cells = assay: Cell viability assay (ATP-lite); format: cell-based; settings: Homo sapiens; AN3-CA (PTEN and PIK3R1 mutations); read-out: Cell Viability IC50 AN3-CA
Protocol: as §2
Alternatively, AN3-CA, RL95-2, HEC-1A endometrial cancer cell lines were plated at a density of 2000 cells per well in a 96 well culture plate in 45 μl of cell culture media and incubated overnight. The following day, test compounds were added to the cells in 5 μl of serum-free media to generate final concentrations of 10, 3, 1, 0.3, 0.1, 0.03, 0.01, or 0.003 μM. Vehicle treated controls were also included and each condition was applied in quadruplicate. Following 96 hours of incubation, 35 μL of ATP-lite (PerkinElmer) reagent was added each well and allowed to react for 10 minutes. Plate was read on a Envision 2104 MultiLabel reader (PerkinElmer).
as §1

T1 sequence (O15530 whole entry): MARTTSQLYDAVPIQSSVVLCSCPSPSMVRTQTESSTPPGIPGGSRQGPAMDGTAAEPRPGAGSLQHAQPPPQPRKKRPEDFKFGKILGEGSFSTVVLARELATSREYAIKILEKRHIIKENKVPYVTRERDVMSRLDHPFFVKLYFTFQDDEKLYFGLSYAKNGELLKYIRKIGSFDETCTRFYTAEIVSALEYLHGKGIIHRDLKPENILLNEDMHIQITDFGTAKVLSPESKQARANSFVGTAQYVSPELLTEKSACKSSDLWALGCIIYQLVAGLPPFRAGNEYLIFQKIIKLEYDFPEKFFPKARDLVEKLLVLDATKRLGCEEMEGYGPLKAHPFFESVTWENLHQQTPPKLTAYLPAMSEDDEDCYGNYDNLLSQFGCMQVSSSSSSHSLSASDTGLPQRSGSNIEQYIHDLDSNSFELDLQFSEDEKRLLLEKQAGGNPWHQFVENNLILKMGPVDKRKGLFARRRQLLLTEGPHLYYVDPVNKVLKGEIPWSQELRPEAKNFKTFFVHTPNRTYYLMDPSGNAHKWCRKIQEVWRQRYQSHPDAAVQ

How did the IC50 (PDK1 [1]) turn out when `O=C(Nc1ccc2[nH]nc(-c3nc4cc(N5CCOCC5)ccc4[nH]3)c2c1)C1CC1` [Compound 3] was run?
The IC50 was 0.283 µM.

What about the IC50 (PDK1 [2]) of the same molecule?
The IC50 was 0.23 µM.

And the IC50 (PDK1 [3])?
Its IC50 is 0.229 µM.

With `O=C(Nc1ccc2[nH]nc(-c3nc4cc(N5CCOCC5)ccc4[nH]3)c2c1)C1CCC(F)(F)CC1` [Compound 4] as the molecule, how does the IC50 (PDK1 [1]) read?
Its IC50 is 0.304 µM.

What about the IC50 (PDK1 [2]) of the same molecule?
Its IC50 is 0.265 µM.

And the IC50 (PDK1 [3])?
Its IC50 is 0.265 µM.

How did the IC50 (PDK1 [1]) turn out when `CC1CCN(c2ccc3[nH]c(-c4n[nH]c5ccc(NC(=O)C6CC6(F)F)cc45)nc3c2)CC1` (centres unmarked) [Compound 5] was run?
Its IC50 is 0.78 µM.

What about the IC50 (PDK1 [2]) of the same molecule?
The IC50 was 0.78 µM.

With `O=C(Nc1ccc2[nH]nc(-c3nc4ccccc4[nH]3)c2c1)C1CCC(F)(F)CC1` [Compound 6] as the molecule, how does the IC50 (PDK1 [1]) read?
The IC50 was 1.5 µM.

And the IC50 (HEC-1A cells)?
The IC50 was 9.65 µM.

And the IC50 (RL95-2 cells)?
Its IC50 is 2.3 µM.

What about the IC50 (AN3-CA cells) of the same molecule?
Its IC50 is 2.07 µM.

What about the IC50 (PDK1 [2]) of the same molecule?
The IC50 was 0.41 µM.

What about the IC50 (PDK1 [3]) of the same molecule?
Its IC50 is 0.41 µM.

For `O=C(Nc1ccc2[nH]nc(-c3nc4ccccc4[nH]3)c2c1)C1CC1` [Compound 7], which IC50 (PDK1 [1]) is on record?
The IC50 was 1.74 µM.

What about the IC50 (PDK1 [2]) of the same molecule?
Its IC50 is 1.23 µM.

And the IC50 (PDK1 [3])?
Its IC50 is 1.23 µM.

Which IC50 (PDK1 [1]) does the source give for `O=C(Nc1ccc2[nH]nc(-c3nc4ccccc4[nH]3)c2c1)C1CC1(F)F` (centres unmarked) [Compound 8] here?
Its IC50 is 1.94 µM.

What about the IC50 (HEC-1A cells) of the same molecule?
The IC50 was 14.8 µM.

What about the IC50 (RL95-2 cells) of the same molecule?
Its IC50 is 6.97 µM.

What about the IC50 (AN3-CA cells) of the same molecule?
The IC50 was 0.33 µM.

And the IC50 (PDK1 [2])?
Its IC50 is 0.28 µM.

What about the IC50 (PDK1 [3]) of the same molecule?
The IC50 was 0.28 µM.

Which IC50 (PDK1 [1]) does the source give for `O=C(Nc1ccc2[nH]nc(-c3nc4cc(CN5CCOCC5)ccc4[nH]3)c2c1)C1CC1(F)F` (centres unmarked) [Compound 9] here?
Its IC50 is 3.75 µM.

What about the IC50 (HEC-1A cells) of the same molecule?
The IC50 was 18.4 µM.

What about the IC50 (RL95-2 cells) of the same molecule?
Its IC50 is 3.22 µM.

And the IC50 (AN3-CA cells)?
The IC50 was 0.443 µM.

What about the IC50 (PDK1 [2]) of the same molecule?
The IC50 was 1.22 µM.

And the IC50 (PDK1 [3])?
Its IC50 is 1.22 µM.

With `O=C(Nc1cccc2[nH]nc(-c3nc4ccc(N5CCOCC5)cc4[nH]3)c12)C1CC1(F)F` (centres unmarked) [Compound 10] as the molecule, how does the IC50 (PDK1 [1]) read?
Its IC50 is 4.4 µM.

And the IC50 (PDK1 [2])?
Its IC50 is 0.385 µM.

And the IC50 (PDK1 [3])?
The IC50 was 0.385 µM.

`Brc1ccc2[nH]nc(-c3nc4ccccc4[nH]3)c2c1` [Compound 11] was tested. Which IC50 (PDK1 [1]) did it give?
The IC50 was 10.9 µM.

And the IC50 (HEC-1A cells)?
The IC50 was 29.5 µM.

And the IC50 (RL95-2 cells)?
The IC50 was 11.5 µM.

What about the IC50 (AN3-CA cells) of the same molecule?
The IC50 was 12.1 µM.

How did the IC50 (PDK1 [1]) turn out when `O=C(Nc1ccc2[nH]nc(-c3nc4ccccc4[nH]3)c2c1)NC1CC1` [Compound 12] was run?
Its IC50 is 11.6 µM.

What about the IC50 (HEC-1A cells) of the same molecule?
Its IC50 is 12.7 µM.

And the IC50 (RL95-2 cells)?
Its IC50 is 17 µM.

And the IC50 (AN3-CA cells)?
The IC50 was 18 µM.

And the IC50 (PDK1 [2])?
Its IC50 is 0.92 µM.

And the IC50 (PDK1 [3])?
Its IC50 is 0.92 µM.

How did the IC50 (PDK1 [1]) turn out when `O=C(Nc1ccc2[nH]nc(-c3nc4ccccc4[nH]3)c2c1)c1cccc(F)c1` [Compound 13] was run?
Its IC50 is 21.1 µM.

And the IC50 (HEC-1A cells)?
Its IC50 is 50.7 µM.

And the IC50 (RL95-2 cells)?
Its IC50 is 15.3 µM.

And the IC50 (AN3-CA cells)?
Its IC50 is 23.8 µM.

What about the IC50 (PDK1 [2]) of the same molecule?
Its IC50 is 8.8 µM.

And the IC50 (PDK1 [3])?
Its IC50 is 8.79 µM.

What does the source list for `CS(=O)(=O)c1cccc(-c2ccc3[nH]nc(-c4nc5ccccc5[nH]4)c3c2)c1` [Compound 14]?
IC50 (PDK1 [1]): 23.7 µM; IC50 (HEC-1A cells): 20.1 µM; IC50 (RL95-2 cells): 35.1 µM; IC50 (AN3-CA cells): 10.1 µM; IC50 (PDK1 [2]): 15.3 µM; IC50 (PDK1 [3]): 15.3 µM

With `FC(F)(F)c1cccc(-c2ccc3[nH]nc(-c4nc5ccccc5[nH]4)c3c2)c1` [Compound 15] as the molecule, how does the IC50 (PDK1 [1]) read?
Its IC50 is 55.7 µM.

And the IC50 (PDK1 [2])?
The IC50 was 30.3 µM.

And the IC50 (PDK1 [3])?
The IC50 was 30.3 µM.

Which results are given for `CC(C)(C#N)c1ccc(-c2ccc3[nH]nc(-c4nc5ccccc5[nH]4)c3c2)cc1` [Compound 16]?
IC50 (PDK1 [1]): 58.5 µM; IC50 (HEC-1A cells): 28.7 µM; IC50 (RL95-2 cells): 15.1 µM; IC50 (AN3-CA cells): 79.3 µM; IC50 (PDK1 [2]): 5.2 µM; IC50 (PDK1 [3]): 5.17 µM

Which results are given for `O=C(Nc1ccc2[nH]nc(-c3nc4ccccc4[nH]3)c2c1)Nc1ccc(F)cc1F` [Compound 17]?
IC50 (PDK1 [1]): > 100 µM; IC50 (PDK1 [3]): > 100 µM

What does the source list for `CN1CCC(C)(C(=O)Nc2ccc3[nH]nc(-c4nc5ccccc5[nH]4)c3c2)CC1` [Compound 18]?
IC50 (PDK1 [1]): > 100 µM; IC50 (HEC-1A cells): 56.3 µM; IC50 (RL95-2 cells): 6.24 µM; IC50 (AN3-CA cells): 15.4 µM

Which IC50 (PDK1 [1]) does the source give for `O=C(Nc1ccc2[nH]nc(-c3nc4ccccc4[nH]3)c2c1)NC1CCCC1` [Compound 19] here?
The IC50 was over 100 µM.

With `O=C(Nc1ccc2[nH]nc(-c3nc4ccccc4[nH]3)c2c1)C1CCN(c2ccncc2)CC1` [Compound 20] as the molecule, how does the IC50 (PDK1 [1]) read?
Its IC50 is over 100 µM.

And the IC50 (PDK1 [3])?
The IC50 was over 100 µM.

`O=C(Nc1ccc2c(-c3nc4ccc(N5CCOCC5)cc4[nH]3)n[nH]c2c1)C1CC1(F)F` (centres unmarked) [Compound 21] was tested. Which IC50 (PDK1 [1]) did it give?
The IC50 was over 100 µM.

What about the IC50 (PDK1 [3]) of the same molecule?
Its IC50 is over 100 µM.
